The results in this text go back to patent US20080021026A1, “BENZOTHIOPHENE INHIBITORS OF RHO KINASE” (priority 2006, published 2008).

The test concerns the target T1, recombinant N-terminal GST-tagged human Rho kinase 2 (ROCK2, amino acids 1-552) (Homo sapiens, UniProt O75116).
T1 construct: ROCK2, amino acids 1-552; purchased Invitrogen Inc. PV3759
In words: In vitro Rho kinase assay (luciferase-based ATP consumption), ROCK2. Type of test: biochemical. The settings on record: recombinant GST-tagged human ROCK2, luciferase-based ATP consumption; read-out: ROCK2 IC50. The gist of the method: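 GST-ROCK2 (aa 1-552, 0.82 μg/ml) with 100 μg/ml S6 peptide and 3 µM ATP in Tris pH 7.5 buffer with MgCl2/CaCl2/EGTA/BSA, compound added just after reaction start, 2 h at 30 °C. Remaining ATP read by luciferase luminescence. Efficacy expressed as percentage of H-1152P positive control.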

T1 sequence (O75116 1-552): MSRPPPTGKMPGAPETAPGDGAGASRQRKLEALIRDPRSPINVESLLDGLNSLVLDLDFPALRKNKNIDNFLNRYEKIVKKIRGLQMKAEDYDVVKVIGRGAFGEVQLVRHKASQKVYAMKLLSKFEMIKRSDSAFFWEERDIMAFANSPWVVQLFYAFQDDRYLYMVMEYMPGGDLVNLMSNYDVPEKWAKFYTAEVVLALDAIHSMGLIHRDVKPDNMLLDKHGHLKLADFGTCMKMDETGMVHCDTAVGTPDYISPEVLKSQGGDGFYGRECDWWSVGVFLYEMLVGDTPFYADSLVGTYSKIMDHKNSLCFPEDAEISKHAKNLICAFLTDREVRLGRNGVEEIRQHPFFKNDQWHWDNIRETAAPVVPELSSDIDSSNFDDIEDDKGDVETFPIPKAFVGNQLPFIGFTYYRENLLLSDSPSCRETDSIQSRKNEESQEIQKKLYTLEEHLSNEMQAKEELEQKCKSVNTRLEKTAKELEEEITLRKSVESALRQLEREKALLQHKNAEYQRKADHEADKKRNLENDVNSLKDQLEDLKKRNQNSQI

As to `Cc1ccc(Cl)cc1N1CCN(C(=O)c2ccc3sc(-c4ccnc(N)n4)c(C)c3c2)CC1` [Example 554, Cc1ccc(Cl)cc1N2CCN(CC2)C(═O)c3ccc4sc(c(C)c4c3)-c5ccnc(N)n5], the half-inhibitory concentration (IC50) was under 5 µM.

Turning to `Cc1c(-c2ccnc(N)n2)sc2ccc(C(=O)N3CCN(c4cccc(C(F)(F)F)c4)CC3)cc12` [Example 566, Cc1c(sc2ccc(cc12)C(═O)N3CCN(CC3)c4cccc(c4)C(F)(F)F)-c5ccnc(N)n5], the IC50 is over 5 µM.

Take `Cc1c(-c2ccnc(N)n2)sc2ccc(C(=O)NCc3ccc(C(C)C)cc3)cc12` [Example 419, CC(C)c1ccc(CNC(═O)c2ccc3sc(c(C)c3c2)-c4ccnc(N)n4)cc1]: the half-inhibitory concentration (IC50) is under 5 µM.

As to `Cc1c(-c2ccnc(N)n2)sc2ccc(C(=O)N3CCN(Cc4ccccc4)CC3)cc12` [Example 521, Cc1c(sc2ccc(cc12)C(═O)N3CCN(CC3)Cc4ccccc4)-c5ccnc(N)n5], the concentration for half-maximal inhibition (IC50) is over 5 µM.

Consider `Cc1c(-c2ccnc(N)n2)sc2ccc(C(=O)NC3CCCC3)cc12` [Example 346, Cc1c(sc2ccc(cc12)C(═O)NC3CCCC3)-c4ccnc(N)n4], for which the half-inhibitory concentration (IC50) is under 5 µM.

Turning to `Cc1c(-c2ccnc(N)n2)sc2ccc(C(=O)N3CCCCC3C)cc12` (stereo not shown) [Example 472, CC1CCCCN1C(═O)c2ccc3sc(c(C)c3c2)-c4ccnc(N)n4], the concentration for half-maximal inhibition (IC50) is under 5 µM.

Take `CCN(CC)CCNC(=O)c1ccc2sc(-c3ccnc(N)n3)c(C)c2c1` [Example 374, CCN(CC)CCNC(═O)c1ccc2sc(c(C)c2c1)-c3ccnc(N)n3]: the IC50 was under 5 µM.

Regarding `CCOc1ccccc1CNC(=O)c1ccc2sc(-c3ccnc(N)n3)c(C)c2c1` [Example 425, CCOc1ccccc1CNC(═O)c2ccc3sc(c(C)c3c2)-c4ccnc(N)n4], the 50% inhibitory concentration (IC50) is under 5 µM.

Take `Cc1c(-c2ccnc(N)n2)sc2ccc(C(=O)N[C@@H](C)c3ccccc3)cc12` [Example 376, C[C@H](NC(═O)c1ccc2sc(c(C)c2c1)-c3ccnc(N)n3)c4ccccc4]: the IC50 was under 5 µM.

In the case of `Cc1c(-c2ccnc(N)n2)sc2ccc(C(=O)N3CCN(C)CC3)cc12` [Example 474, CN1CCN(CC1)C(═O)c2ccc3sc(c(C)c3c2)-c4ccnc(N)n4], the IC50 is under 5 µM.

For the molecule `COc1cccc(CCNC(=O)c2ccc3sc(-c4ccnc(N)n4)c(C)c3c2)c1` [Example 421, COc1cccc(CCNC(═O)c2ccc3sc(c(C)c3c2)-c4ccnc(N)n4)c1], the IC50 is under 5 µM.

Consider `Cc1c(-c2ccnc(N)n2)sc2ccc(C(=O)N3CCCC(CO)C3)cc12` (stereo not shown) [Example 486, Cc1c(sc2ccc(cc12)C(═O)N3CCCC(CO)C3)-c4ccnc(N)n4], for which the IC50 is under 5 µM.

Take `Cc1c(-c2ccnc(N)n2)sc2ccc(C(=O)NCc3ccc(Cl)cc3)cc12` [Example 410, Cc1c(sc2ccc(cc12)C(═O)NCc3ccc(Cl)cc3)-c4ccnc(N)n4]: the IC50 is under 5 µM.

As to `Cc1c(-c2ccnc(N)n2)sc2ccc(C(=O)NCCC(C)C)cc12` [Example 350, CC(C)CCNC(═O)c1ccc2sc(c(C)c2c1)-c3ccnc(N)n3], the 50% inhibitory concentration (IC50) was under 5 µM.

With `Cc1ccc(N2CCN(C(=O)c3ccc4sc(-c5ccnc(N)n5)c(C)c4c3)CC2)cc1C` [Example 537, Cc1ccc(cc1C)N2CCN(CC2)C(═O)c3ccc4sc(c(C)c4c3)-c5ccnc(N)n5], the half-maximal inhibitory concentration (IC50) was over 5 µM.

As for `Cc1c(-c2ccnc(N)n2)sc2ccc(C(=O)NC3CCC3)cc12` [Example 339, Cc1c(sc2ccc(cc12)C(═O)NC3CCC3)-c4ccnc(N)n4], the IC50 was under 5 µM.

In the case of `Cc1c(-c2ccnc(N)n2)sc2ccc(C(=O)NCCc3ccc(Cl)cc3)cc12` [Example 428, Cc1c(sc2ccc(cc12)C(═O)NCCc3ccc(Cl)cc3)-c4ccnc(N)n4], the IC50 was under 5 µM.

Take `CCN(CC)CCN(Cc1ccccc1)C(=O)c1ccc2sc(-c3ccnc(N)n3)c(C)c2c1` [Example 551, CCN(CC)CCN(Cc1ccccc1)C(═O)c2ccc3sc(c(C)c3c2)-c4ccnc(N)n4]: the half-inhibitory concentration (IC50) is under 5 µM.

Turning to `Cc1c(-c2ccnc(N)n2)sc2ccc(Nc3cccc(O)c3)cc12` [Example 52, 3-(2-(2-Aminopyrimidin-4-yl)-3-methylbenzo[b]thiophen-5-ylamino)phenol], the 50% inhibitory concentration (IC50) was under 5 µM.

On to `Cc1c(-c2ccnc(N)n2)sc2ccc(C(=O)N3CCN(c4ccc(C(F)(F)F)cn4)CC3)cc12` [Example 568, Cc1c(sc2ccc(cc12)C(═O)N3CCN(CC3)c4ccc(cn4)C(F)(F)F)-c5ccnc(N)n5], for which the IC50 is over 5 µM.

On to `Cc1c(-c2ccnc(N)n2)sc2ccc(C(=O)N3CCCC(C(N)=O)C3)cc12` (stereo not shown) [Example 496, Cc1c(sc2ccc(cc12)C(═O)N3CCCC(C3)C(N)═O)-c4ccnc(N)n4], for which the half-inhibitory concentration (IC50) is under 5 µM.

On to `Cc1c(-c2ccnc(N)n2)sc2ccc(C(=O)N(C)Cc3ccccc3)cc12` [Example 492, CN(Cc1ccccc1)C(═O)c2ccc3sc(c(C)c3c2)-c4ccnc(N)n4], for which the half-maximal inhibitory concentration (IC50) is under 5 µM.

On to `Cc1c(-c2ccnc(N)n2)sc2ccc(C(=O)NCc3ccc(N(C)C)cc3)cc12` [Example 450, CN(C)c1ccc(CNC(═O)c2ccc3sc(c(C)c3c2)-c4ccnc(N)n4)cc1], for which the IC50 was over 5 µM.

`Cc1c(-c2ccnc(N)n2)sc2ccc(C(=O)N(CCC#N)Cc3cccnc3)cc12` [Example 512, Cc1c(sc2ccc(cc12)C(═O)N(CCC#N)Cc3cccnc3)-c4ccnc(N)n4]: the 50% inhibitory concentration (IC50) is under 5 µM.

As to `CCCC(C)NC(=O)c1ccc2sc(-c3ccnc(N)n3)c(C)c2c1` (stereo not shown) [Example 347, CCCC(C)NC(═O)c1ccc2sc(c(C)c2c1)-c3ccnc(N)n3], the IC50 is under 5 µM.

As for `Cc1c(-c2ccnc(N)n2)sc2ccc(C(=O)NC(C)CC(C)C)cc12` (stereo not shown) [Example 359, CC(C)CC(C)NC(═O)c1ccc2sc(c(C)c2c1)-c3ccnc(N)n3], the IC50 was over 5 µM.

As to `CCN(C)C(=O)c1ccc2sc(-c3ccnc(N)n3)c(C)c2c1` [Example 460, CCN(C)C(═O)c1ccc2sc(c(C)c2c1)-c3ccnc(N)n3], the half-maximal inhibitory concentration (IC50) is under 5 µM.

Take `Cc1c(-c2ccnc(N)n2)sc2ccc(C(=O)N(CCO)Cc3ccccc3)cc12` [Example 506, Cc1c(sc2ccc(cc12)C(═O)N(CCO)Cc3ccccc3)-c4ccnc(N)n4]: the IC50 was under 5 µM.

Take `Cc1c(-c2ccnc(N)n2)sc2ccc(C(=O)NCCc3ccc(F)cc3)cc12` [Example 405, Cc1c(sc2ccc(cc12)C(═O)NCCc3ccc(F)cc3)-c4ccnc(N)n4]: the half-maximal inhibitory concentration (IC50) was under 5 µM.

As to `COc1cccc(N2CCN(C(=O)c3ccc4sc(-c5ccnc(N)n5)c(C)c4c3)CC2)c1` [Example 542, COc1cccc(c1)N2CCN(CC2)C(═O)c3ccc4sc(c(C)c4c3)-c5ccnc(N)n5], the IC50 was over 5 µM.

For `Cc1c(-c2ccnc(N)n2)sc2ccc(C(=O)NCc3cccs3)cc12` [Example 367, Cc1c(sc2ccc(cc12)C(═O)NCc3cccs3)-c4ccnc(N)n4], the IC50 is under 5 µM.

Regarding `Cc1c(-c2ccnc(N)n2)sc2ccc(C(=O)NCCCc3ccccc3)cc12` [Example 397, Cc1c(sc2ccc(cc12)C(═O)NCCCc3ccccc3)-c4ccnc(N)n4], the IC50 was under 5 µM.

As for `Cc1c(-c2ccnc(N)n2)sc2ccc(C(=O)N3CC(C)OC(C)C3)cc12` (stereo not shown) [Example 488, CC1CN(CC(C)O1)C(═O)c2ccc3sc(c(C)c3c2)-c4ccnc(N)n4], the IC50 is under 5 µM.

With `Cc1c(-c2ccnc(N)n2)sc2ccc(C(=O)NCc3ccccc3F)cc12` [Example 384, Cc1c(sc2ccc(cc12)C(═O)NCc3ccccc3F)-c4ccnc(N)n4], the half-maximal inhibitory concentration (IC50) was under 5 µM.

For the molecule `Cc1c(-c2ccnc(N)n2)sc2ccc(C(=O)NCc3cc(F)cc(F)c3)cc12` [Example 414, Cc1c(sc2ccc(cc12)C(═O)NCc3cc(F)cc(F)c3)-c4ccnc(N)n4], the IC50 was under 5 µM.

Regarding `Cc1c(-c2ccnc(N)n2)sc2ccc(C(=O)NC(C)CO)cc12` (stereo not shown) [Example 344, CC(CO)NC(═O)c1ccc2sc(c(C)c2c1)-c3ccnc(N)n3], the half-inhibitory concentration (IC50) was under 5 µM.

Take `Cc1c(-c2ccnc(N)n2)sc2ccc(Oc3cccc(O)c3)cc12` [Example 82, 3-(2-(2-Aminopyrimidin-4-yl)-3-methylbenzo[b]thiophen-5-yloxy)phenol]: the IC50 was under 5 µM.

For `Cc1c(-c2ccnc(N)n2)sc2ccc(C(=O)N(CCO)[C@H](C)c3ccccc3)cc12` [Example 516, C[C@@H](N(CCO)C(═O)c1ccc2sc(c(C)c2c1)-c3ccnc(N)n3)c4ccccc4], the IC50 is under 5 µM.

Consider `Cc1c(-c2ccnc(N)n2)sc2ccc(C(=O)NC3CCN(Cc4ccccc4)C3)cc12` (stereo not shown) [Example 448, Cc1c(sc2ccc(cc12)C(═O)NC3CCN(C3)Cc4ccccc4)-c5ccnc(N)n5], for which the half-maximal inhibitory concentration (IC50) was under 5 µM.

Turning to `Cc1c(-c2ccnc(N)n2)sc2ccc(C(=O)NCCOc3ccccc3)cc12` [Example 401, Cc1c(sc2ccc(cc12)C(═O)NCCOc3ccccc3)-c4ccnc(N)n4], the IC50 is under 5 µM.

Take `Cc1c(-c2ccnc(N)n2)sc2ccc(C(=O)N(Cc3cccnc3)Cc3cccnc3)cc12` [Example 547, Cc1c(sc2ccc(cc12)C(═O)N(Cc3cccnc3)Cc4cccnc4)-c5ccnc(N)n5]: the IC50 is under 5 µM.

On to `Cc1c(-c2ccnc(N)n2)sc2ccc(C(=O)NCCCN3CCCC3=O)cc12` [Example 411, Cc1c(sc2ccc(cc12)C(═O)NCCCN3CCCC3═O)-c4ccnc(N)n4], for which the IC50 is over 5 µM.

As to `Cc1c(-c2ccnc(N)n2)sc2ccc(C(=O)NCc3ccccc3)cc12` [Example 363, Cc1c(sc2ccc(cc12)C(═O)NCc3ccccc3)-c4ccnc(N)n4], the IC50 was under 5 µM.

With `CCN(CCCCO)C(=O)c1ccc2sc(-c3ccnc(N)n3)c(C)c2c1` [Example 490, CCN(CCCCO)C(═O)c1ccc2sc(c(C)c2c1)-c3ccnc(N)n3], the IC50 was under 5 µM.

As for `Cc1c(-c2ccnc(N)n2)sc2ccc(C(=O)NC(C)Cc3ccncc3)cc12` (stereo not shown) [Example 399, CC(Cc1ccncc1)NC(═O)c2ccc3sc(c(C)c3c2)-c4ccnc(N)n4], the IC50 was under 5 µM.

Consider `Cc1c(-c2ccnc(N)n2)sc2ccc(C(=O)N(CCCO)Cc3ccccn3)cc12` [Example 517, Cc1c(sc2ccc(cc12)C(═O)N(CCCO)Cc3ccccn3)-c4ccnc(N)n4], for which the half-maximal inhibitory concentration (IC50) was under 5 µM.

The term IC50 denotes the concentration that gives 50% inhibition.
